Legend:
Experiment in all cases: relative viability (nuclei count vs DMSO), 5 days (fraction); higher = more cells survive
RU-SKI 43 + OSI-027 = compound: CC[C@@H](C)CNCC(=O)N1CCC2=C([C@@H]1COC3=CC=CC(=C3)C)C=CS2 [RU-SKI 43] + COc1cccc2cc(-c3nc([C@H]4CC[C@H](C(=O)O)CC4)n4ncnc(N)c34)[nH]c12 [OSI-027] (partner 0.5 µM)
How it was run: (§1)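 Relative viability equals treated-well nuclei counts divided by vehicle-well nuclei counts. Counts came from 4× images of lung cancer cell lines grown in 1536-well plates for 5 days after pin-tool dosing on the day after seeding. Dosing used one drug alone or a fixed anchor-drug dose plus five library-drug doses (not always all listed) in √10 steps, and values are medians of duplicate plates.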

RU-SKI 43 + Decitabine = compound: CC[C@@H](C)CNCC(=O)N1CCC2=C([C@@H]1COC3=CC=CC(=C3)C)C=CS2 [RU-SKI 43] + Nc1ncn([C@H]2C[C@H](O)[C@@H](CO)O2)c(=O)n1 [Decitabine] (partner 2 µM)
How it was run: as §1

Irinotecan + Decitabine = compound: CCc1c2c(nc3ccc(OC(=O)N4CCC(N5CCCCC5)CC4)cc13)-c1cc3c(c(=O)n1C2)COC(=O)[C@]3(O)CC [Irinotecan] + Nc1ncn([C@H]2C[C@H](O)[C@@H](CO)O2)c(=O)n1 [Decitabine] (partner 2 µM)
How it was run: as §1

MK-8033 + Foretinib = compound: Cn1cc(-c2cnc3ccc4ccc(CS(=O)(=O)NCc5ccccn5)cc4c(=O)c3c2)cn1 [MK-8033] + COc1cc2c(Oc3ccc(NC(=O)C4(C(=O)Nc5ccc(F)cc5)CC4)cc3F)ccnc2cc1OCCCN1CCOCC1 [Foretinib] (partner 0.25 µM)
How it was run: as §1

| Cell Line | relative viability (RU-SKI 43 + OSI-027; first compound 0.1 µM) | relative viability (RU-SKI 43 + OSI-027; first compound 0.3162 µM) | relative viability (RU-SKI 43 + OSI-027; first compound 1 µM) | relative viability (RU-SKI 43 + OSI-027; first compound 3.162 µM) | relative viability (RU-SKI 43 + OSI-027; first compound 10 µM) | relative viability (RU-SKI 43 + Decitabine; first compound 0.1 µM) | relative viability (RU-SKI 43 + Decitabine; first compound 0.3162 µM) | relative viability (RU-SKI 43 + Decitabine; first compound 1 µM) | relative viability (RU-SKI 43 + Decitabine; first compound 3.162 µM) | relative viability (RU-SKI 43 + Decitabine; first compound 10 µM) | relative viability (Irinotecan + Decitabine; first compound 0.6325 µM) | relative viability (Irinotecan + Decitabine; first compound 2 µM) | relative viability (Irinotecan + Decitabine; first compound 6.325 µM) | relative viability (Irinotecan + Decitabine; first compound 20 µM) | relative viability (MK-8033 + Foretinib; first compound 0.02 µM) | relative viability (MK-8033 + Foretinib; first compound 0.06325 µM) | relative viability (MK-8033 + Foretinib; first compound 0.2 µM) | relative viability (MK-8033 + Foretinib; first compound 0.6325 µM) | relative viability (MK-8033 + Foretinib; first compound 2 µM) |
| --- | --- | --- | --- | --- | --- | --- | --- | --- | --- | --- | --- | --- | --- | --- | --- | --- | --- | --- | --- |
| NCI-H1666 | 0.897 | 0.87 | 0.85 | 0.858 | 0.752 | 0.739 | 0.794 | 0.721 | 0.643 | 0.665 | 0.551 | 0.62 | 0.547 | 0.545 | 1.02 | 0.842 | 0.911 | 0.953 | 1.01 |
| NCI-H1734 | 0.498 | 0.638 | 0.603 | 0.671 | 0.534 | 0.522 | 0.544 | 0.598 | 0.487 | 0.473 |  | 0.27 | 0.18 | 0.197 | 0.829 | 0.665 | 0.78 | 0.861 | 0.856 |
| NCI-H1755 | 0.757 | 0.825 | 0.781 | 0.841 | 0.699 | 0.714 | 0.798 | 0.758 | 0.715 | 0.755 | 0.58 | 0.503 | 0.427 | 0.491 | 0.961 | 0.884 | 0.865 | 0.889 | 0.949 |
| NCI-H1793 | 0.257 | 0.21 | 0.348 | 0.28 | 0.257 | 0.461 | 0.421 | 0.458 | 0.486 | 0.443 |  | 0.315 | 0.262 | 0.258 | 0.696 | 0.515 | 0.615 | 0.574 | 0.784 |
| NCI-H1915 | 0.641 | 0.706 | 0.703 | 0.686 | 0.614 | 0.272 | 0.257 | 0.285 | 0.25 | 0.255 | 0.216 | 0.189 | 0.134 | 0.126 | 1.08 | 0.997 | 1.05 | 1.07 | 1.11 |
| NCI-H1944 | 0.428 | 0.397 | 0.503 | 0.445 | 0.404 | 0.449 | 0.4 | 0.423 | 0.473 | 0.442 | 0.323 | 0.206 | 0.149 | 0.151 | 0.88 | 0.773 | 0.852 | 0.962 | 0.927 |
| NCI-H1975 | 0.749 | 0.829 | 1.02 | 0.779 | 0.604 | 0.346 | 0.377 | 0.439 | 0.381 | 0.276 | 0.374 | 0.438 | 0.342 | 0.141 | 0.944 | 0.944 | 0.875 |  | 1 |
| NCI-H1993 | 0.53 | 0.527 | 0.596 | 0.59 | 0.575 | 0.547 | 0.578 | 0.517 | 1.1 | 0.643 |  | 0.581 | 0.542 | 0.6 | 0.696 | 0.774 | 0.789 | 0.73 | 0.949 |
| NCI-H2009 | 0.69 | 0.599 | 0.698 | 0.699 | 0.601 | 0.374 | 0.332 | 0.364 | 0.376 | 0.283 | 0.358 | 0.32 | 0.266 | 0.135 | 1.25 | 1.25 | 1.19 | 1.24 | 1.14 |
| NCI-H2023 | 0.442 | 0.455 | 0.465 | 0.413 | 0.372 | 0.211 | 0.254 | 0.22 | 0.246 | 0.237 | 0.264 | 0.209 | 0.141 | 0.0603 | 0.822 | 0.786 | 0.701 | 0.948 | 0.771 |
| NCI-H2085 | 0.705 | 0.678 | 0.696 | 0.834 | 0.552 | 0.509 | 0.497 | 0.572 | 0.603 | 0.509 | 0.536 | 0.391 | 0.38 | 0.382 | 0.914 | 0.75 | 1.23 | 0.919 | 0.951 |
| NCI-H2087 | 0.666 | 0.56 | 0.705 | 0.563 | 0.516 | 0.324 | 0.283 | 0.281 | 0.247 | 0.238 | 0.146 | 0.218 | 0.196 | 0.159 | 1.03 | 1.11 | 0.889 | 1.16 | 0.957 |
| NCI-H2126 | 0.681 | 0.627 | 0.777 | 0.678 | 0.715 | 0.591 | 0.574 | 0.523 | 0.615 | 0.554 | 0.503 | 0.372 | 0.295 | 0.267 | 1.13 | 0.998 | 1.16 | 1.18 | 1.15 |
| NCI-H2170 | 0.709 | 0.745 | 0.761 | 0.809 | 0.667 | 0.439 | 0.514 | 0.438 | 0.426 | 0.49 | 0.396 | 0.222 | 0.128 | 0.122 | 1.03 | 0.966 | 0.959 | 1.06 | 1.09 |
| NCI-H2342 | 0.541 | 0.594 | 0.622 | 0.641 | 0.62 | 0.701 |  | 0.724 | 0.797 | 0.769 | 0.732 | 0.789 | 0.68 | 0.436 | 1.04 | 1.08 | 0.976 | 0.947 | 1.07 |
| NCI-H2347 | 0.414 | 0.414 | 0.697 | 0.389 | 0.328 | 0.604 | 0.542 | 0.651 | 0.617 | 0.636 | 0.652 | 0.626 | 0.599 | 0.547 | 1.21 | 1.01 | 0.805 | 0.839 | 0.939 |
| NCI-H2405 | 0.618 | 0.56 | 0.615 | 0.684 | 0.569 | 0.704 | 0.778 | 0.681 | 0.808 | 0.688 |  | 0.667 | 0.411 | 0.255 | 1.01 | 1.02 | 0.988 | 1.09 | 1.04 |
| NCI-H3122 | 1.02 | 1.23 | 1.31 | 1.01 | 0.96 | 0.365 | 0.478 | 0.469 | 0.413 | 0.391 | 0.232 | 0.163 | 0.117 | 0.127 | 0.962 | 0.958 | 0.93 | 0.908 | 0.974 |
| PC-3 [JPC-3] | 0.682 | 0.862 | 0.797 | 0.804 | 0.366 | 0.789 | 0.894 | 0.804 | 0.852 | 0.749 | 0.805 | 0.927 | 0.655 | 0.365 | 0.977 | 0.952 | 0.994 | 1 | 1.03 |
| PC-14 | 0.844 | 1.07 | 0.93 | 0.965 | 0.75 | 0.248 | 0.219 | 0.225 | 0.218 | 0.203 | 0.184 | 0.182 | 0.12 | 0.111 | 0.918 | 0.859 | 0.905 | 0.985 | 0.869 |
| RERF-LC-KJ | 0.505 | 0.514 | 0.603 | 0.56 | 0.548 | 0.782 | 0.832 | 0.69 | 0.681 | 0.58 | 0.539 | 0.792 | 0.482 | 0.154 | 0.869 | 0.854 | 0.829 | 0.928 | 0.875 |
| SK-LU-1 | 0.324 | 0.375 | 0.342 | 0.361 | 0.317 | 0.571 | 0.684 | 0.612 | 0.593 | 0.535 | 0.498 | 0.504 | 0.423 | 0.25 | 0.843 | 0.813 | 0.837 | 0.849 | 0.815 |
| SK-MES-1 | 0.491 | 0.65 | 0.737 | 0.791 | 0.569 | 0.313 | 0.385 | 0.391 | 0.403 | 0.389 | 0.398 | 0.483 | 0.282 | 0.143 | 0.899 | 0.86 | 0.858 | 0.805 | 0.851 |
| SW 900 | 0.684 | 0.595 | 0.782 | 0.604 | 0.53 | 0.422 | 0.408 | 0.423 | 0.428 | 0.453 |  | 0.4 | 0.354 | 0.367 | 0.732 | 0.813 | 0.665 | 0.88 | 0.79 |
| SW 1573 | 0.634 | 0.797 | 0.682 | 0.741 | 0.611 | 0.483 | 0.594 | 0.51 | 0.532 | 0.433 | 0.445 | 0.511 | 0.173 | 0.0927 | 0.93 | 0.759 | 0.841 | 0.918 | 0.995 |

— the supplement of paper PMC10307832
